Laboratory results as given in US20110288014A1, “METHODS AND COMPOSITIONS FOR DIABETES TREATMENT AND PREVENTION” (TUM Technische Universitat Munchen, priority 2008, published 2011).
Entries after “also recorded” stand apart in the source; their conditions may differ.

Columns and labels:
[1] = test system: mouse adipocytes (cell line 3T3-L1); test: 2-deoxyglucose (2-DG) uptake, resorufin assay; format: cell-based
Procedure: Mouse adipocytes (cell line 3T3-L1) as well as mouse myotubes (cell line C2C12) were cultivated under standard conditions and treated either with regular cell culture medium or insulin for 4 hours. Afterwards, cells were exposed to a combination of 2-deoxyglucose (2-DG) and the respective sample, either N-MP, coffee beverage (content of NMP in the coffee beverage: 26.7 mg/L) or a combination of both, for 2 hours. Then, cells were harvested and the 2-DG uptake was analyzed photometrically using the resorufin assay (Yamamoto, N.; Sato, T.; Kawasaki, K.; Murosaki, S.; Yamamoto, Y. A nonradioisotope, enzymatic assay for 2-deoxyglucose uptake in L6 skeletal muscle cells cultured in a 96-well microplate. Analytical Biochemistry 2006, 351, 139-145).

[2] = test system: mouse adipocytes (cell line 3T3-L1); test: 2-deoxyglucose (2-DG) uptake, resorufin assay; format: cell-based; conditions: for 2-DG uptake: first ten minutes after incubation, nearly independent of concentration
[3] = sample alone, no insulin cotreatment, compared to control cells

Compound | 2-deoxyglucose uptake in adipocytes [1, 3] | 2-deoxyglucose uptake in adipocytes ([1]; in combination with insulin) | other results
Cc1ccc[n+](C)c1 [N-3-Methylpicolinium iodide] | substantial improvement |  | 
Cc1cc[n+](C)cc1 [N-4-Methylpicolinium] | substantial increase | substantial increase | 2-DG uptake ([1]; alone or in combination with insulin, independently from the concentration used (FIGS. 10 and 11)): higher than 100%; 2-DG uptake ([1]; in some cases (FIG. 11, concurrent use of insulin)): > 200%
CCCCCCCCCCCCCCCC[n+]1ccccc1 [N-cetylpyridinium iodide] | excellent effects | excellent effects | 2-DG uptake ([2]; alone (FIG. 16 left panel)): excellent results; 2-DG uptake ([2]; co-treatment with insulin (FIG. 16 right panel)): excellent results
CC[n+]1ccccc1 [N-ethylpyridinium iodide] | good results |  | 
C[n+]1ccccc1.[I-] [N-methylpyridinium iodide] |  | improved | 
N-methylpyridinium [N-MP] | increased; also recorded: best results and effects | significantly enhance the effect of insulin | effectiveness of insulin on 2-deoxyglucose uptake ([1]; FIG. 5, in combination with coffee beverage and insulin): greatly enhance the effectiveness of insulin; 2-deoxyglucose uptake in adipocytes ([1]; sample alone, no insulin cotreatment, compared to control cells, listed as N-Methylpyridinium): enhance the uptake of 2-deoxyglucose in mouse adipocytes similarly insulin; 2-DG uptake by mouse adipocytes ([2]; FIG. 2, in combination with insulin, treatment times 1 min and 10 min, compared with insulin alone): statistically higher extent than insulin alone
